Values joined by “and” are separate entries in the source; they are usually repeats but may differ in a detail not shown here. Identical values can stand only once.
Assays:
Type in all cases: in vivo
Tomato plants cv. H9478 = assay: Protection of drought injury and enhancement of recovery
Procedure: Tomato plants cv. […] (cultivar of Heinz Co.) were grown in 20 liter pots and placed in a growth chamber maintained at 24/18° C. day/night temperatures and a 16 hour photoperiod with 400 μmol m^-2s^-1 of cool-white fluorescent lights. Two month-old plants were sprayed with either distilled water, […]) or LPE 18:1 (100 mg/L) before exposure to drought stress. Drought stress was given by withholding water for 2 days. The plants were sprayed once again with distilled water, […]) or LPE 18:1 (100 mg/L) right after water was given (alleviation of water stress). During drought stress, all water, […] 18:1-sprayed plants were severely wilted but regained turgor soon after water was given again.

Tomato Plants cv. H9144 [1] = assay: Protection of pesticide (Marathon, imidacloprid) injury and enhancement of recovery; conditions: 200 mg/L in 1% ethanol; 10 days after spraying (FIG. 3)
Source text: Marathon with active […] of imidacloprid (available from Olympic Chemical Co., PO Box K, Mainland, Pa.) is a pesticide used for controlling whitefly in plants. This is a systemic pesticide and is introduced to the plant via soil application. As the pesticide accumulates in the foliage the insects feeding on the plants are killed. Sometimes as this chemical accumulates in the plant it can result in phytotoxicity to the plant. To test this, tomato plants cv. […] (cultivar of Heinz Co.) were grown for two (2) months in 20 liter pots in a greenhouse. […] Many leaves lost chlorophyll and plants had poor shoot growth. Three weeks after the treatment of pesticide, […]18:1 or LPI (200 mg/L each) solution containing 1% ethanol were sprayed to the point that solution started to run off the leaves. Control plants were sprayed with distilled water containing 1% ethanol. The LPE solution was prepared by wetting 200 mg of LPE in 1 ml ethanol and then adding distilled water to make 1 liter of total volume. The LPE solution was then sonicated 1 minute before spraying.

'Hazel' oat seeds = assay: Seedling vigour (root and shoot fresh weight) of 'Hazel' oats soaked in LPE or LPC; conditions: 10 ppm (each), incubated at 20° C.; for Root fresh wt per seedling / Shoot Fresh wt per seedling: soaked 30 minutes; for Root fresh wt per seedlings / Shoot Fresh wt per seedlings: soaked 2 hours
Source text: Values are mean±SE (4 replications). […] Values are mean±SE (4 replications).

Tomato Plants cv. H9144 [2] = assay: Protection of chilling injury and enhancement of recovery, tomato seedlings; conditions: for Leaf Chlorophyll Mean ± SE / Leaf Phospholipids Mean ± SE / Leaf Water (fresh/dry wt ratio) Mean ± SE: measured 10 days after chilling
Procedure: Tomato Plants cv. […] (cultivar of Heinz Co.) were grown in 20-liter pots containing […], Ohio) in a greenhouse which was supplied with additional tungsten light for a 16 hour photoperiod. […] Control leaf branch was sprayed with distilled water. The LPE solution was prepared by suspending 200 mg of crude […] (Avanti Polar Lipids, Inc., Alabaster, Ala.) in one liter of distilled water and then sonicating for 1 minute before spraying. After 4 days of chilling treatment at 4/2° C. day/night temperatures and a 16 hour photoperiod with 200 μmol m^-2 s^-1 fluorescent light intensity, plants were transferred to a growth chamber maintained at 24/18° C. day/night temperatures and a 16 hour photoperiod with 400 μmol m^-2 s^-1 of fluorescent light intensity. […] When measured 10 days after chilling, LPE-sprayed leaf tissues, either before or after chilling, had higher levels of water, chlorophyll, and phospholipid content than water-sprayed control (see Table 1 below). […] Chilling and recovery conditions were the same as in Example 1a above.

[3] = tested on: Cucumber (Cucumis sativus inbred line-WI2238) plants; assay: Protection of chilling injury and recovery, cucumber seedlings; conditions: 100 mg/L sprayed twice, 1 hour before and right after 2 days chilling
Procedure: Cucumber (Cucumis sativus inbred line-WI2238) plants were grown in 4 liter plastic pots containing a sterilized mixture of peat:sand:composited soil:field soil (1:1:1:1, v/v) at a greenhouse. Growing conditions and other details were same as in Example 1a. […] After 2 days of chilling treatment at the same conditions as in Example 1a , plants were transferred to a growth chamber maintained at 23±2° C. temperature and 16 hour photoperiod with 400 μmol […] of fluorescent light intensity.

[4] = tested on: castor bean (Ricinus communis L. cv Hale)
[5] = tested on: Sweet corn seeds (SS Jubilee); assay: Germination and seedling fresh mass of sweet corn seeds soaked in LPE solution; conditions: soaked 2 hours
Procedure: Sweet corn seeds (SS Jubilee, certified seed obtained from the Wisconsin Crop Improvement Association, Madison Wis.) were soaked for 2 hours in LPE solution. Seeds were removed from the LPE solution and 50 seeds were placed on 2 paper towels and wetted with distilled water (5 seeds in one row) then seeds were covered with another wet paper towel. The three towels with the seeds were rolled, placed in a metal container and incubated at 25° C. The container was covered with plastic and the cover secured with a rubber band. The germination percentage was tested after 4 and 7 days. The procedure was as specified by the Association of Official Seed Analysts. Four replications were conducted with 50 seeds in each replication. […] Furthermore, LPE treated seeds produced larger (root and shoot) seedlings. SS Jubilee sweet corn seeds were soaked for 2 hours in LPE solution. Seeds were incubated using the same procedure described in Example 6. The germination percentage was tested after 4 and 7 days. Four replications were conducted with 50 seeds in each replication. […] On a commercial level, this means that LPE treatment of the seeds will insure more plants in a given field and that LPE treated seeds will produce plants having a head start.

H.2350 field corn seeds = assay: Germination and seedling fresh weight of field corn seeds soaked in LPE solution; conditions: incubated at 25° C. for 8 days
Procedure: H.2350 (Certified seed obtained from the Wisconsin Crop Improvement Association, Madison, Wis.) field corn seeds were soaked in LPE solution. Seeds were incubated at 25° C. for 8 days using the procedure described in Example 6. Four replications were conducted with 50 seeds in each replication.

'Hazel' oats = assay: Germination of 'Hazel' oats soaked in LPE or LPC; conditions: 10 ppm (each), incubated at 20° C.
Procedure: ‘Hazel’ oats (Certified seed obtained from the Wisconsin Crop Improvement Association, Madison, Wis.) were soaked in LPE or LPC. Seeds were soaked for either 30 minutes or 2 hours at room temperature (23±2° C.) and then incubated at 20° C. using the official seed germination test rules (Rules for testing seeds are published by the Association of Official Seed Analysts) for testing seeds. Four replications were conducted with 100 seeds in each replication. […] Moreover, a greater proportion of the seeds treated with these lipids, germinated earlier. Thus, this seed treating increased both the rate and amount of seed germination.

[6] = 100 mg/L sprayed before drought and right after water was given, after 2 or 3 days
[7] = 200 mg/L LPEegg spray, 4 days chilling at 4/2° C., vs water-sprayed control
[8] = 200 mg/L sprayed 1 hour before chilling
[9] = 200 mg/L sprayed right after chilling

CCCCCCCC/C=C\CCCCCCCC(=O)OCC(O)COP(=O)(O)OCCN (stereo not drawn) [LPE 18:1]
shoot growth after drought stress (Tomato plants cv. H9478; [6]): vigorous shoot growth
shoot growth after drought stress (Tomato plants cv. H9478; 100 mg/L, 7 days after drought stress was alleviated (FIG. 2)): vigorous shoot growth
shoot growth after pesticide injury (Tomato Plants cv. H9144 [1]): vigorous shoot growth

Lysophosphatidyl choline [LPC]
Root fresh wt per seedling ('Hazel' oat seeds): 40.4 ± 2.7 mg
Shoot Fresh wt per seedling ('Hazel' oat seeds): 108.9 ± 4.5 mg
Root fresh wt per seedlings ('Hazel' oat seeds): 48.9 ± 0.7 mg
Shoot Fresh wt per seedlings ('Hazel' oat seeds): 130.4 ± 2.7 mg

lysophosphatidylethanolamine [LPE]
protection from chilling injury (Tomato Plants cv. H9144 [2]; 100 mg/L LPEegg sprayed 1 hour before chilling, vs water-sprayed and non-sprayed controls): most effective in protecting the plant from chilling injury
chilling damage to the leaves (Tomato Plants cv. H9144 [2]; [7]): mitigation of chilling damage to the leaves
shoot meristem growth after chilling (Tomato Plants cv. H9144 [2]; [7]): enhanced shoot meristem growth
Leaf Chlorophyll Mean ± SE (Tomato Plants cv. H9144 [2]; [8]): 21.6 ± 0.1 mg/g dry wt
Leaf Phospholipids Mean ± SE (Tomato Plants cv. H9144 [2]; [8]): 25.9 ± 0.3 nmol/mg dry wt
Leaf Water (fresh/dry wt ratio) Mean ± SE (Tomato Plants cv. H9144 [2]; [8]): 10.1 ± 0.4 fresh/dry wt ratio
Leaf Chlorophyll Mean ± SE (Tomato Plants cv. H9144 [2]; [9]): 28.2 ± 4.0 mg/g dry wt
Leaf Phospholipids Mean ± SE (Tomato Plants cv. H9144 [2]; [9]): 25.7 ± 1.0 nmol/mg dry wt
Leaf Water (fresh/dry wt ratio) Mean ± SE (Tomato Plants cv. H9144 [2]; [9]): 10.81 ± 0.5 fresh/dry wt ratio
chilling damage in leaves [3]: severe chilling damage in leaves
shoot growth after chilling ([3]; after 7 days): vigorous shoot growth
shoot growth after drought stress (Tomato plants cv. H9478; [6]): vigorous shoot growth
leaf curling and browning after wounding ([4]; after 1 day): much less leaf curling and browning
leaf turgidity after wounding ([4]; in vivo): remained turgid for several days
wound-healing symptoms ([4]; in vivo): leaf damaged areas were healed and gained green color
Average Fresh Mass Produced from 50 seeds, Root (primary + secondary) ([5]; Table 2, 5 ppm): 1.6 ± 0.4 g
Average Fresh Mass Produced from 50 seeds, Shoot ([5]; Table 2, 5 ppm): 10.0 ± 0.5 g
% Germination After 4 days ([5]; Table 2, 5 ppm, 25° C.): 61.0 ± 1.7%
% Germination After 7 days ([5]; Table 2, 5 ppm, 25° C.): 70.0 ± 2.2%
Average Fresh Mass Produced from 50 seeds, Root (primary + secondary) ([5]; Table 2, 10 ppm): 1.3 ± 0.1 g
Average Fresh Mass Produced from 50 seeds, Shoot ([5]; Table 2, 10 ppm): 8.7 ± 0.2 g
% Germination After 4 days ([5]; Table 2, 10 ppm, 25° C.): 69.0 ± 2.6%
% Germination After 7 days ([5]; Table 2, 10 ppm, 25° C.): 71.5 ± 2.8%
Average Fresh Mass Produced from 50 seeds, Root (primary + secondary) ([5]; Table 2, 20 ppm): 1.2 ± 0.0 g
Average Fresh Mass Produced from 50 seeds, Shoot ([5]; Table 2, 20 ppm): 10.4 ± 0.4 g
% Germination After 4 days ([5]; Table 2, 20 ppm, 25° C.): 60.0 ± 3.6%
% Germination After 7 days ([5]; Table 2, 20 ppm, 25° C.): 65.0 ± 1.3%
% Germination After 4 days ([5]; Table 3 (Example 7), 1 ppm): 68.5 ± 4.0%
% Germination After 7 days ([5]; Table 3 (Example 7), 1 ppm): 76.5 ± 4.6%
Average Fresh Mass Produced from 50 seeds, Root (primary + secondary) ([5]; Table 3 (Example 7), 1 ppm): 0.9 ± 0.1 g
Average Fresh Mass Produced from 50 seeds, Shoot ([5]; Table 3 (Example 7), 1 ppm): 9.1 ± 0.8 g
% Germination After 4 days ([5]; Table 3 (Example 7), 10 ppm): 61.5 ± 5.7% and 73.8 ± 2.8%
% Germination After 7 days ([5]; Table 3 (Example 7), 10 ppm): 68.0 ± 3.4% and 78.0 ± 2.3%
Average Fresh Mass Produced from 50 seeds, Root (primary + secondary) ([5]; Table 3 (Example 7), 10 ppm): 0.8 ± 0.0 g and 1.1 ± 0.1 g
Average Fresh Mass Produced from 50 seeds, Shoot ([5]; Table 3 (Example 7), 10 ppm): 7.6 ± 0.3 g and 10.4 ± 0.4 g
% Germination (H.2350 field corn seeds; 5 ppm): 97.0 ± 0.6%
Fresh Weight Root (primary + secondary), average mass produced from 50 seeds (H.2350 field corn seeds; 5 ppm): 14.2 ± 0.8 g
Fresh Weight Shoot, average mass produced from 50 seeds (H.2350 field corn seeds; 5 ppm): 16.2 ± 0.6 g
% Germination (H.2350 field corn seeds; 10 ppm): 98.5 ± 1.0%
Fresh Weight Root (primary + secondary), average mass produced from 50 seeds (H.2350 field corn seeds; 10 ppm): 13.6 ± 0.3 g
Fresh Weight Shoot, average mass produced from 50 seeds (H.2350 field corn seeds; 10 ppm): 15.6 ± 0.7 g
% Germination (Mean ± SE) After 4 days ('Hazel' oats; soaked 30 min): 87.7 ± 0.9% and 82.5 ± 1.7%
% Germination (Mean ± SE) After 10 days ('Hazel' oats; soaked 30 min): 91.3 ± 0.7% and 90.8 ± 1.1%
% Germination (Mean ± SE) After 4 days ('Hazel' oats; soaked 2 hours): 82.8 ± 1.1% and 82.0 ± 1.2%
% Germination (Mean ± SE) After 10 days ('Hazel' oats; soaked 2 hours): 94.3 ± 1.3% and 93.5 ± 1.0%
Root fresh wt per seedling ('Hazel' oat seeds): 48.4 ± 1.9 mg
Shoot Fresh wt per seedling ('Hazel' oat seeds): 124.1 ± 3.0 mg
Root fresh wt per seedlings ('Hazel' oat seeds): 46.4 ± 0.6 mg
Shoot Fresh wt per seedlings ('Hazel' oat seeds): 121.1 ± 2.5 mg

lysophosphatidylinositol [LPI]
shoot growth after pesticide injury (Tomato Plants cv. H9144 [1]): vigorous shoot growth

Source: patent US6559099B1, “Methods for enhancing plant health, protecting plants from biotic and abiotic stress related injuries and enhancing the recovery of plants injured as a result of such stresses” (Wisconsin Alumni Research Foundation, priority 2000, dated 2003)
